One data set concerns the target T1, hCA IX (Homo sapiens, UniProt Q16790).
T1 construct: made in house
Description: stopped-flow CO2 hydrase assay, hCA IX. Format: biochemical. The procedure:
(§1) For that purpose, the stopped-flow CO2 hydration assay was used (Table 1).
(§2) The inhibitory properties of title compounds against CAs were determined using the stopped-flow CO2 hydrase assay, as previously reported.

The target of the next data set is T2, hCA I (Homo sapiens, UniProt P00915).
T2 construct: made in house
The data set can be described thus: stopped-flow CO2 hydrase assay, hCA I. Format: biochemical. The procedure: as §1, §2

Another data set concerns the target T3, hCA II (Homo sapiens, UniProt P00918).
T3 construct: made in house
The data set can be described thus: stopped-flow CO2 hydrase assay, hCA II. The format is biochemical. The protocol: as §1, §2

Another data set concerns the target T4, hCA XII (Homo sapiens, UniProt O43570).
T4 construct: made in house
The data set can be described thus: stopped-flow CO2 hydrase assay, hCA XII. The format is biochemical. The protocol:
as §1, §2

The subject of data set [1] is A549, HBL-100, HeLa, SW1573, T-47D, WiDr. Description: antiproliferative assay (NCI protocol), panel of six human tumor cell lines. The format is cell-based. The note with it: normoxic conditions. The procedure: (§3) Some representative compounds (5a–e, 16b, 16e–i) were also tested as potential antiproliferative agents against a panel of six human tumor cell lines: A549 (non-small cell lung), HBL-100 (breast), HeLa (cervix), SW1573 (non-small cell lung), T-47D (breast), WiDr (colon). Unfortunately, no relevant activity was found for the tested compounds.
(§4) Minor modifications of the US National Cancer Institute (NCI) protocol were used.

Data set [2] relates to A549 (non-small cell lung). Description: antiproliferative assay (NCI protocol), A549. The format is cell-based. The conditions noted are these: Homo sapiens; line A549; normoxic conditions. The procedure: as §3, §4
Where [3] appears, read: sulfonamido-containing squaramides, mean from 3 assays, stopped flow.
Setting [4] is: coumarin-containing squaramides, incubation time 6 h, mean from three assays.

Consider six compounds from article PMC9318203, “Squaramide-Tethered Sulfonamides and Coumarins: Synthesis, Inhibition of Tumor-Associated CAs IX and XII and Docking Simulations” (International Journal of Molecular Sciences, 2022).

The term Ki denotes a measure of affinity in units of concentration, obtained from inhibition or displacement. For orientation: GI50 means the concentration at which growth is held to half of that of the control. In general, melting point refers to the temperature, or range, at which the solid turns liquid.

T4 sequence (O43570 25-354): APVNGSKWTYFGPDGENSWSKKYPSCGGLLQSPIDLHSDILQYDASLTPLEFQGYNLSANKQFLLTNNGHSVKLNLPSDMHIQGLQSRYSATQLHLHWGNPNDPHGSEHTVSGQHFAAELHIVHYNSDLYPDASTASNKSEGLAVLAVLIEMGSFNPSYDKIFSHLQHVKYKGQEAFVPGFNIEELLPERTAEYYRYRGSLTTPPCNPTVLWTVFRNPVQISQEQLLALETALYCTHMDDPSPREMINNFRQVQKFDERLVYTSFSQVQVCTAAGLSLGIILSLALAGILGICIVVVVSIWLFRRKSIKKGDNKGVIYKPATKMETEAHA
T2 sequence (P00915 whole entry): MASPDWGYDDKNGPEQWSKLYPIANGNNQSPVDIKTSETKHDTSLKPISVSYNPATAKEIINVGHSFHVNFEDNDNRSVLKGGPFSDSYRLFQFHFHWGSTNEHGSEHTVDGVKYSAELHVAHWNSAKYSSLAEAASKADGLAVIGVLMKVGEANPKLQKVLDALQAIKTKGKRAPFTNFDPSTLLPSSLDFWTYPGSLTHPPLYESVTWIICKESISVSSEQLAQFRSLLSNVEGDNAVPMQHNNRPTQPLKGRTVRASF

For the compound `NS(=O)(=O)c1ccc(CCNc2c(NCCc3ccc(S(N)(=O)=O)cc3)c(=O)c2=O)cc1` [Compound 6, 3,4-Bis[2′-(4″-sulfonamidophenyl)ethylamino]cyclobut-3-ene-1,2-dione], the “S.I. I/IX” value on hCA IX (Ki (CA I)/Ki (CA IX)) is reported as 0.52. In addition, at hCA IX (Ki (CA II)/Ki (CA IX)), the “S.I. II/IX” value was found to be 0.68. The Ki at hCA IX (setting [3]) came to 83 nM; at hCA I (setting [3]), 0.0432 µM; on hCA II (setting [3]), 0.0562 µM; at hCA XII (setting [3]), 87.8 nM. On hCA XII (Ki (CA I)/Ki (CA XII)), the “S.I. I/XII” value is 0.49. For the same compound, on hCA XII (Ki (CA II)/Ki (CA XII)), the “S.I. II/XII” value is 0.64. The GI50 in data set [1] (all the cell lines) was over 100 µM.
`Cc1cc(=O)oc2cc(OCCCCCNc3c(Nc4ccccc4)c(=O)c3=O)ccc12` [Compound 16b, 3-{[5′-((4″-Methyl-2″-oxo-2″H-chromen-7″-yl)oxy)pentyl]amino}-4-phenylaminocyclobut-3-ene-1,2-dione]: the melting point was over 250 °C. The compound further gave a Ki on hCA IX (setting [4]) of 44.1 nM. The same compound gave a Ki at hCA I (setting [4]) of over 10 µM. For the same compound, the inhibitory constant (Ki) at hCA II (setting [4]) was over 10 µM. Moreover, in data set [2], it took 94 ± 10 µM to inhibit growth by half (GI50). Also, on hCA XII (setting [4]), the affinity corresponds to a Ki of 14.3 nM. In data set [1] (the rest of the cell lines (other than A549)), this compound registered a GI50 of over 100 µM.
Compound `COc1ccc(Nc2c(NCCCCCOc3ccc4c(C)cc(=O)oc4c3)c(=O)c2=O)cc1` [Compound 16e, 3-[(4′-Methoxyphenyl)amino]-4-{[5″-(4‴-methyl-2‴-oxo-2‴H-chromen-7‴-yl)oxypentyl]amino}cyclobut-3-ene-1,2-dione] showed a melting point of 215 to 216 °C. Moreover, on hCA IX (setting [4]), the affinity, expressed as Ki, was 59.7 nM. Moreover, at hCA I (setting [4]), the Ki is over 10 µM. The same compound registered a Ki at hCA II (setting [4]) of over 10 µM. The same compound gave a Ki at hCA XII (setting [4]) of 19.5 nM. This compound also returned a GI50 in data set [1] (all the cell lines) of over 100 µM.
Regarding `Cc1cc(=O)oc2cc(OCCCCCNc3c(Nc4ccc(F)cc4)c(=O)c3=O)ccc12` [Compound 16f, 3-[(4′-Fluorophenyl)amino]-4-{[5″-(4‴-methyl-2‴-oxo-2‴H-chromen-7‴-yl)oxypentyl]amino}cyclobut-3-ene-1,2-dione], the Ki was 43.7 nM at hCA IX (setting [4]), over 10 µM at hCA I (setting [4]), over 10 µM on hCA II (setting [4]) and 15.9 nM on hCA XII (setting [4]). This compound yielded a GI50 in data set [1] (all the cell lines) of over 100 µM.
In turn, `Cc1c(C)c2ccc(OCCCCCNc3c(Nc4ccc(I)cc4)c(=O)c3=O)cc2oc1=O` [Compound 16o, 3-{[5′-(3″,4″-Dimethyl-2″-oxo-2″H-chromen-7″-yl)oxypentyl]amino}-4-(4‴-iodophenylamino)cyclobut-3-ene-1,2-dione] had a melting point of over 250 °C. On hCA IX (setting [4]), this compound displayed a Ki of 92.1 nM. At hCA I (setting [4]), this compound showed a Ki of over 10 µM. The same compound displayed a Ki at hCA II (setting [4]) of over 10 µM. On hCA XII (setting [4]), this compound returned an inhibition constant Ki of 50.8 nM.
The compound `O=c1cc(-c2ccccc2)c2ccc(OCCCCCNc3c(Nc4ccccc4)c(=O)c3=O)cc2o1` [Compound 16p, 3-Phenylamino-4-{[5′-(4″-Phenyl-2″-oxo-2″H-chromen-7″-yl)oxypentyl]amino}cyclobut-3-ene-1,2-dione] displayed a melting point of 209 to 210 °C. For the same compound, the Ki on hCA IX (setting [4]) amounted to 267 nM. In addition, on hCA IX (vs 16b), the “fold decreased activity compared with 16b, CA IX” value was “roughly 6.1 fold”. At hCA I (setting [4]), this compound had a Ki of over 10 µM. The compound further registered a Ki on hCA II (setting [4]) of over 10 µM. For the same compound, the Ki at hCA XII (setting [4]) is 87.9 nM. The “fold decreased activity compared with 16b, CA XII” value on hCA XII (vs 16b) is on record as “roughly 6.1 fold”.
